# ChEMBL document CHEMBL5500423, “More than an Amide Bioisostere: Discovery of 1,2,4-Triazole-containing Pyrazolo[1,5-a]pyrimidine Host CSNK2 Inhibitors for Combatting β-Coronavirus Replication” (J Med Chem, 2024)
# Tests used:
# [1] = Kinetic solubility of compound in PBS at pH 7.4 incubated for 24 hrs by HPLC analysis; type: physicochemical; conditions: buffer, pH 7.4, 24 h
# Murine hepatitis virus = assay: Antiviral activity against Murine hepatitis virus infected in mouse DBT cells preincubated with cells for 1 hrs followed by viral infection and measured after 10 hrs by luminometer; type: functional, organism-based; conditions: Murine coronavirus
# [2] = target: Casein kinase II subunit alpha' (Homo sapiens, UniProt P19784); assay: Inhibition of NLuc-fused CSNK2A2 (unknown origin) expressed in HEK293 cells incubated for 2 hrs by NanoBRET assay; type: cell-based
# Sequence of Casein kinase II subunit alpha' (P19784 whole entry, the tested form may be a part): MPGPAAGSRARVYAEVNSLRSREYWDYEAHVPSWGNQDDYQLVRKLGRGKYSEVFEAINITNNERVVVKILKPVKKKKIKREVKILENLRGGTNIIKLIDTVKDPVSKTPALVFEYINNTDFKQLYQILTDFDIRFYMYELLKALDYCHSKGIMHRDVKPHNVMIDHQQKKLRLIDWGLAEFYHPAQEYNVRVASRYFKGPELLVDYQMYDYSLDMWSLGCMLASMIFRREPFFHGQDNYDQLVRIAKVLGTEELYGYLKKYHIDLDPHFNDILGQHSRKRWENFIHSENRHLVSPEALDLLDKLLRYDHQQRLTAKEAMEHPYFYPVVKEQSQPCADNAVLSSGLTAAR
# [3] = Cytotoxicity against human A549-ACE2 cells assessed as cell viability at 1 uM incubated for 48 hrs by CellTiter-Glo2 assay relative to control; type: toxicity, cell-based; conditions: a549-ace2, 48 h
SMILES,Kinetic_solubility [1] [µg/mL],IC50 (Murine hepatitis virus) [nM],IC50 [2] [nM],Activity [3] [%]
CC(=O)Nc1cccc(Nc2cc(NC3CC3)n3ncc(C#N)c3n2)c1,2.8,158,–,–
CNCCN(C)c1ccc(Nc2cc(NC3CC3)n3ncc(C#N)c3n2)cc1-n1cnnc1,16,1000,126,–
CS(=O)(=O)Cc1cccc(Nc2cc(NC3CC3)n3ncc(C#N)c3n2)c1,–,158,50.1,–
CC(=O)N1CCC(Nc2cc(Nc3cccc(-n4cnnc4)c3)nc3c(C#N)cnn23)CC1,–,> 10000,> 10000,–
N#Cc1cnn2c(NC3CC3)cc(Nc3cccc(-c4nccs4)c3)nc12,–,2510,794,–
N#Cc1cnn2c(NC3CC3)cc(Nc3cccc(-c4cnccn4)c3)nc12,–,> 10000,> 10000,–
N#Cc1cnn2c(NC3CCC3)cc(Nc3cccc(-n4cnnc4)c3)nc12,0.18,79.4,7.94,93
CN1CCN(c2ccc(Nc3cc(NC4CC4)n4ncc(C#N)c4n3)cc2-n2cnnc2)CC1,0.2,5010,158,–
N#Cc1cnn2c(NC3CC3)cc(Nc3cc(-n4cnnc4)ccn3)nc12,1.2,158,10,96
N#Cc1cnn2c(NC3CC3)cc(Nc3cccc(-c4ccccn4)c3)nc12,–,> 10000,5010,–
N#Cc1cnn2c(NC3CC(F)(F)C3)cc(Nc3cccc(-n4cnnc4)c3)nc12,–,> 10000,398,–
N#Cc1cnn2c(NCC3CCOC3)cc(Nc3cccc(-n4cnnc4)c3)nc12 (configuration not stated),–,5010,> 10000,–
CS(=N)(=O)Cc1cccc(Nc2cc(NC3CC3)n3ncc(C#N)c3n2)c1 (configuration not stated),–,≥ 10000,–,–
CNCCn1cnc(Nc2cc(Nc3cccc(-n4cnnc4)c3)nc3c(C#N)cnn23)c1,8.4,> 10000,1580,–
N#Cc1cnn2c(NCCO)cc(Nc3cccc(-n4cnnc4)c3)nc12,–,> 10000,> 10000,–
CN(C)CCn1ccc(Nc2cc(Nc3cccc(-n4cnnc4)c3)nc3c(C#N)cnn23)n1,21,5010,31.6,–
N#Cc1cnn2c(NC3CC3)cc(Nc3cccc(-n4cnnn4)c3)nc12,–,> 10000,5.01,–
CP(C)(=O)Cc1cccc(Nc2cc(NC3CC3)n3ncc(C#N)c3n2)c1,–,7940,631,–
N#Cc1cnn2c(NC3CC3)cc(Nc3cccc(-c4ncns4)c3)nc12,–,> 10000,50.1,–

SMILES,Kinetic_solubility [1] [µg/mL],IC50 (Murine hepatitis virus) [nM],IC50 [2] [nM],Activity [3] [%]
N#Cc1cnn2c(Nc3cn(CCN4CCCC4)cn3)cc(Nc3cccc(-n4cnnc4)c3)nc12,37,> 10000,200,–
CCN(CCN)c1cc(F)c(Nc2cc(NC3CC3)n3ncc(C#N)c3n2)cc1-n1cnnc1,39,1580,501,–
N#Cc1cnn2c(Nc3ccn(CCN4CCCC4)n3)cc(Nc3cccc(-n4cnnc4)c3)nc12,35,1580,25.1,–
CN(CCN1CCCC1)c1ccc(Nc2cc(NC3CC3)n3ncc(C#N)c3n2)cc1-n1cnnc1,–,10000,50.1,–
N#Cc1cnn2c(NC3CC3)cc(Nc3cc(-n4cnnc4)c(N4CC[C@H](N)C4)cc3F)nc12,37,2000,251,–
Cn1cc(CNc2cc(Nc3cccc(-n4cnnc4)c3)nc3c(C#N)cnn23)cn1,–,> 10000,> 10000,–
CC(C)(C#N)c1cccc(Nc2cc(NC3CC3)n3ncc(C#N)c3n2)c1,–,> 10000,794,–
N#Cc1cnn2c(Nc3cn(CCN4CCOCC4)cn3)cc(Nc3cccc(-n4cnnc4)c3)nc12,4.2,> 10000,5010,–
N#Cc1cnn2c(NC3CC3)cc(Nc3ccc(N4CCOCC4)c(-n4cnnc4)c3)nc12,1.1,126,–,–
Cn1cnc(Nc2cc(Nc3cccc(-n4cnnc4)c3)nc3c(C#N)cnn23)c1,3.1,794,79.4,–
N#Cc1cnn2c(NC3CC3)cc(Nc3cccc(-n4ccnn4)c3)nc12,–,3160,501,–
CS(=O)(=O)Nc1cccc(Nc2cc(NC3CC3)n3ncc(C#N)c3n2)c1,–,794,126,–
N#Cc1cnn2c(NC3CC3)cc(Nc3cccc(C(=O)O)c3)nc12,–,> 10000,> 10000,–
N#Cc1cnn2c(NC3CC3)cc(Nc3cccc(-n4cc[nH]c4=O)c3)nc12,–,> 10000,> 10000,–
N#Cc1cnn2c(Nc3ccn(CCN4CCOCC4)n3)cc(Nc3cccc(-n4cnnc4)c3)nc12,4,1000,79.4,–
CNCCn1ccc(Nc2cc(Nc3cccc(-n4cnnc4)c3)nc3c(C#N)cnn23)n1,2.1,> 10000,79.4,–
N#Cc1cnn2c(NCC3CCOCC3)cc(Nc3cccc(-n4cnnc4)c3)nc12,–,> 10000,> 10000,–
Cn1cnnc1-c1cccc(Nc2cc(NC3CC3)n3ncc(C#N)c3n2)c1,–,> 10000,> 10000,–
CN(CCN)c1cc(F)c(Nc2cc(NC3CC3)n3ncc(C#N)c3n2)cc1-n1cnnc1,41,2510,1000,–

SMILES,Kinetic_solubility [1] [µg/mL],IC50 (Murine hepatitis virus) [nM],IC50 [2] [nM],Activity [3] [%]
CN[C@@H]1CCCN(c2cc(F)c(Nc3cc(NC4CC4)n4ncc(C#N)c4n3)cc2-n2cnnc2)C1,–,1580,158,–
CN[C@H]1CCCN(c2ccc(Nc3cc(NC4CC4)n4ncc(C#N)c4n3)cc2-n2cnnc2)C1,56,2000,126,–
N#Cc1cnn2c(NC3CC3)cc(Nc3ccc(N4CCC[C@H](N)C4)c(-n4cnnc4)c3)nc12,47,631,126,–
N#Cc1cnn2c(NC3CC3)cc(Nc3cccc(-c4nnco4)c3)nc12,–,10000,631,–
CN(CCN1CCOCC1)c1ccc(Nc2cc(NC3CC3)n3ncc(C#N)c3n2)cc1-n1cnnc1,25,631,79.4,–
N#Cc1cnn2c(NC3COC3)cc(Nc3cccc(-n4cnnc4)c3)nc12,–,> 10000,251,–
N#Cc1cnn2c(NC3CC3)cc(Nc3cccc(-n4ncnn4)c3)nc12,–,> 10000,200,–
C[S+]([O-])Cc1cccc(Nc2cc(NC3CC3)n3ncc(C#N)c3n2)c1 (configuration not stated),–,398,39.8,–
CN[C@@H]1CCCN(c2ccc(Nc3cc(NC4CC4)n4ncc(C#N)c4n3)cc2-n2cnnc2)C1,63,3160,794,–
CCNCCN(C)c1ccc(Nc2cc(NC3CC3)n3ncc(C#N)c3n2)cc1-n1cnnc1,–,7940,631,–
CC(C)(O)Cc1cccc(Nc2cc(NC3CC3)n3ncc(C#N)c3n2)c1,–,7940,398,–
N#Cc1cnn2c(NC3CC3)cc(Nc3ccc(N4CC[C@@H](N)C4)c(-n4cnnc4)c3)nc12,44,2510,251,–
Cc1nncn1-c1cccc(Nc2cc(NC3CC3)n3ncc(C#N)c3n2)c1,–,631,39.8,–
Cc1nccn1-c1cccc(Nc2cc(NC3CC3)n3ncc(C#N)c3n2)c1,–,> 10000,31.6,–
CN(C)CCn1cnc(Nc2cc(Nc3cccc(-n4cnnc4)c3)nc3c(C#N)cnn23)c1,30,> 10000,501,–
N#Cc1cnn2c(NC3CC3)cc(Nc3cccc(-c4nn[nH]n4)c3)nc12,–,2510,> 10000,–
N#Cc1cnn2c(NC3CC3)cc(Nc3cccc(Cn4cnnc4)c3)nc12,–,> 10000,3980,–
CN(CCO)c1cc(F)c(Nc2cc(NC3CC3)n3ncc(C#N)c3n2)cc1-n1cnnc1,2.6,2510,63.1,–
N#Cc1cnn2c(NC3CC3)cc(Nc3cccc(CCO)c3)nc12,–,7940,631,–
